From the NIST ThermoML archive (doi:10.1016/j.jct.2016.03.008)

Assay: mn = molality of the nth substance listed, in mol/kg
Settings: 101 kPa, Liquid; for viscosity: Capillary tube (Ostwald / Ubbelohde) method; for mass density: Vibrating tube method

C[N+](C)(C)CC(=O)O.[Cl-] [betaine hydrochloride] + O
Settings	mass density, 298.15 K [kg/m3]	mass density, 308.15 K [kg/m3]	mass density, 318.15 K [kg/m3]	viscosity, 298.15 K [mPa·s]	viscosity, 308.15 K [mPa·s]	viscosity, 318.15 K [mPa·s]
m1 = 0.006	997.26	994.25	990.47	0.8929	0.7208	0.598
m1 = 0.0134	997.52	994.51	990.73	0.8965	0.7244	0.6005
m1 = 0.0267	997.98	994.97	991.19	0.9009	0.7288	0.6054
m1 = 0.0401	998.43	995.42	991.65	0.9064	0.7331	0.6104
m1 = 0.0536	998.87	995.87	992.1	0.9124	0.7381	0.6153
m1 = 0.0671	999.31	996.31	992.54	0.9181	0.7427	0.62

O=c1cc[nH]c(=O)[nH]1 [2,4(1H,3H)-pyrimidinedione] + O
Settings	mass density, m1 = 0.005 [kg/m3]	mass density, m1 = 0.01 [kg/m3]	mass density, m1 = 0.015 [kg/m3]	mass density, m1 = 0.02 [kg/m3]	viscosity, m1 = 0.005 [mPa·s]	viscosity, m1 = 0.01 [mPa·s]	viscosity, m1 = 0.015 [mPa·s]	viscosity, m1 = 0.02 [mPa·s]
298.15 K	997.23	997.44	997.63	997.82	0.8929	0.8953	0.8977	0.9002
308.15 K	994.25	994.44	994.63	994.82	0.722	0.7232	0.7245	0.727
318.15 K	990.42	990.61	990.79	990.98	0.598	0.6004	0.6017	0.6041
